Measured values: PMC7724566, “Prospects for Clinical Development of Stat5 Inhibitor IST5-002: High Transcriptomic Specificity in Prostate Cancer and Low Toxicity In Vivo” (Cancers, 2020)

Assays:
JAK1 = JAK1 (Homo sapiens, UniProt P23458); experiment: Cell-based tyrosine phosphorylation of Jak kinases (IP/immunoblot); set-up: endogenous in cells; host or cells: DU145 and CWR22Pc; settings: 6 µM, 6 h
Excerpt: (§1) Figure 5 Both IST5 and IST5-M suppress dimerization of Stat5 with similar efficacies in prostate cancer cells. (A), IST5 and IST5-M inhibit equally potently dimerization of Stat5 in native-gel-based Stat5 dimerization assay. CWR22Rv1 cells were transfected with STAT5A-eYFP (Stat5 wild type), STAT5A-N642H-eYFP (constitutive activated Stat5 by N642H mutation, as a positive control) or STAT3-eYFP (Stat3 wild type, as a negative control) constructs for 3 days. CWR22Rv1 cells were serum-starved for 16 h, pretreated with vanadate (1 mM) for 2 h, followed by treatment with vehicle, IST5 and IST5-M (1 µM) for 6 h and stimulation with Prl (10 nM) for 1 h. Dimerization of Stat5 was analyzed by detection of the eYFP fluorescence of the native Coomassie gel. (B), IST5 and IST5-M inhibited cytokine-induced dimerization of Stat5 with high efficacy in PC cells. PC-3 cells were co-transfected with pCMV-3Flag-Stat5a, pCMV-3Myc-Stat5a, and pPrlR plasmids. Cells were serum-starved for 16 h, pretreated with IST5, IST5-M or vehicle at indicated concentrations for 2 h, followed by stimulation with Prl (10 nM) for 30 min. Anti-MYC mAb was utilized to immunoprecipitate the MYC-tagged Stat5a and blotted with anti-FLAG mAb or anti-MYC mAb, as indicated. […] (C), densitometric analyses of the Stat5 dimerization data based on co-immunoprecipitations and immunoblotting in (B). […] Prostate cancer cells were treated with IST5 (6 µM) or vehicle for 6 h. Jak1, Jak2, Jak3 and Tyk2 were immunoprecipitated and blotted with anti-phospho-tyrosine, Jak1, Jak2, Jak3 and Tyk2 antibodies. Whole cell lysates (WCL) were immunoblotted for actin. (E), differences in posttranslational modifications were detected between native and recombinant STAT5a using mass spectrometry. Native STAT5a from CWR22Rv1 cells and recombinant STAT5a from E. coli were gel-purified, digested using trypsin, and analyzed by bottom-up mass spectrometry. Native full-length STAT5a (blue) is show with recombinant STAT5A highlighted (red). Sites of acetylation and phosphorylation from the respective sources are noted including two previously published sites of phosphorylation (asterisk).
(§2) Given that IST5 suppresses phosphorylation of Stat5 in PC cells, it is possible that IST5 inhibits the kinase(s) responsible for Stat5 phosphorylation and activation in PC cells. To evaluate if IST5 affects kinase activity in cancer cells, we tested kinase inhibitory activity of IST5 in two custom-tailored panels including 54 relevant kinases (Table 1), including Jak1, Jak2, Jak3, Tyk2, Abl1, Abl2, Lck, Fyn, Src and TrkB/C. In addition, we further tested if IST5 inhibits tyrosine phosphorylation of Jak1, Jak2, Jak3 or Tyk2 using a cell-based assay (Figure 5D), where phosphorylation of the kinase is indicative of enzymatic kinase activity. DU145 and CWR22Rv1 cells were treated with IST5 (6 µM) for 6 h followed by immunoprecipitation of Jak1, Jak2, Jak3 and Tyk2 and immunoblotting with anti-phospho-tyrosine antibody. […] Collectively, these findings indicate that the inhibitory effect of IST5 on Stat5 phosphorylation in cancer cells is not due to inhibition of Jak2 or other key kinases including Jak1, Jak3, Tyk2, Src, Lck, Fyn, TrkB/C, Abl1 or Abl2 (Table 1, Figure 5D).
(§3) Cell pellets were solubilized in the lysis buffer (10 mM Tris-HCl (pH 7.6), 5 mM EDTA, 50 mM sodium chloride, 30 mM sodium pyrophosphate, 50 mM sodium fluoride, 1 mM sodium orthovanadate, 1% Triton X-100, 1 mM phenylmethylsulfonyl fluoride, 5 µg/mL aprotinin, 1 µg/mL pepstatin A and 2 µg/mL leupeptin), and protein concentrations of clarified cell lysates were determined by a simplified Bradford method (Bio-Rad, Hercules, CA, USA). The whole cell lysates were immunoprecipitated with polyclonal antibodies (Table S1) followed by incubation with protein A-Sepharose beads (GE Healthcare, Chicago, IL, USA). […]

TYK2 = TYK2 (Homo sapiens, UniProt P29597); experiment: as above; set-up: endogenous in cells; host or cells: DU145 and CWR22Pc; settings: 6 µM, 6 h
Excerpt: as §1, §2, §3

Chain of JAK1 (P23458 whole entry): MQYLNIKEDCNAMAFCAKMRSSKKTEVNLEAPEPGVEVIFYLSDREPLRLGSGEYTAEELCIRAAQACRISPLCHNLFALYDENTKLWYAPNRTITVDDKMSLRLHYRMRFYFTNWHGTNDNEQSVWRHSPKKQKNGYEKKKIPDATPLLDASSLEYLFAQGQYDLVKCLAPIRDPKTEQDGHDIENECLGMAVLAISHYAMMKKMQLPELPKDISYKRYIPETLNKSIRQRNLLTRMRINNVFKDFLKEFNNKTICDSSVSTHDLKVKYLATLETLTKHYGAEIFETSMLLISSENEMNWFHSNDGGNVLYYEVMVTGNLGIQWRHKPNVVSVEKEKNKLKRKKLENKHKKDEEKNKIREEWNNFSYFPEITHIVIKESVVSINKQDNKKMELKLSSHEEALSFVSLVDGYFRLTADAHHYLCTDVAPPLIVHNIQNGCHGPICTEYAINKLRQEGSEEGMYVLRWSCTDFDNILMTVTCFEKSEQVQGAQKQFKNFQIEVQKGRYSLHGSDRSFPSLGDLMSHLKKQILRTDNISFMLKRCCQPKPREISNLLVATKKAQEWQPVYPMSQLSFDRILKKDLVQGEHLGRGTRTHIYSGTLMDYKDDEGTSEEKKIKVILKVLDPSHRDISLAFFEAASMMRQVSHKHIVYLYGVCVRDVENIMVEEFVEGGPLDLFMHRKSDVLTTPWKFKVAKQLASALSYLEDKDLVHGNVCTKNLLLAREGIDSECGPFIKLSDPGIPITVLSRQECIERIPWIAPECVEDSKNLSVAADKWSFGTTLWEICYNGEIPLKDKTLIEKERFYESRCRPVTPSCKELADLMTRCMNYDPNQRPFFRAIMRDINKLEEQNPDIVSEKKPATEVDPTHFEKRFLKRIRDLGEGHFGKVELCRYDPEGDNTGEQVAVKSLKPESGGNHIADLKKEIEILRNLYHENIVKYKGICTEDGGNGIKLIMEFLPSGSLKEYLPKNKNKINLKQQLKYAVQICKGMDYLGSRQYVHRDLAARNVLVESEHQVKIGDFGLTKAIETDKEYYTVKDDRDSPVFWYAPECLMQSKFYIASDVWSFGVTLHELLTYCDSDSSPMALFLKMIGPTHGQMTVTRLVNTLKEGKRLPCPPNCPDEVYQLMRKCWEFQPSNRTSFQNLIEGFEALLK
Chain of TYK2 (P29597 whole entry): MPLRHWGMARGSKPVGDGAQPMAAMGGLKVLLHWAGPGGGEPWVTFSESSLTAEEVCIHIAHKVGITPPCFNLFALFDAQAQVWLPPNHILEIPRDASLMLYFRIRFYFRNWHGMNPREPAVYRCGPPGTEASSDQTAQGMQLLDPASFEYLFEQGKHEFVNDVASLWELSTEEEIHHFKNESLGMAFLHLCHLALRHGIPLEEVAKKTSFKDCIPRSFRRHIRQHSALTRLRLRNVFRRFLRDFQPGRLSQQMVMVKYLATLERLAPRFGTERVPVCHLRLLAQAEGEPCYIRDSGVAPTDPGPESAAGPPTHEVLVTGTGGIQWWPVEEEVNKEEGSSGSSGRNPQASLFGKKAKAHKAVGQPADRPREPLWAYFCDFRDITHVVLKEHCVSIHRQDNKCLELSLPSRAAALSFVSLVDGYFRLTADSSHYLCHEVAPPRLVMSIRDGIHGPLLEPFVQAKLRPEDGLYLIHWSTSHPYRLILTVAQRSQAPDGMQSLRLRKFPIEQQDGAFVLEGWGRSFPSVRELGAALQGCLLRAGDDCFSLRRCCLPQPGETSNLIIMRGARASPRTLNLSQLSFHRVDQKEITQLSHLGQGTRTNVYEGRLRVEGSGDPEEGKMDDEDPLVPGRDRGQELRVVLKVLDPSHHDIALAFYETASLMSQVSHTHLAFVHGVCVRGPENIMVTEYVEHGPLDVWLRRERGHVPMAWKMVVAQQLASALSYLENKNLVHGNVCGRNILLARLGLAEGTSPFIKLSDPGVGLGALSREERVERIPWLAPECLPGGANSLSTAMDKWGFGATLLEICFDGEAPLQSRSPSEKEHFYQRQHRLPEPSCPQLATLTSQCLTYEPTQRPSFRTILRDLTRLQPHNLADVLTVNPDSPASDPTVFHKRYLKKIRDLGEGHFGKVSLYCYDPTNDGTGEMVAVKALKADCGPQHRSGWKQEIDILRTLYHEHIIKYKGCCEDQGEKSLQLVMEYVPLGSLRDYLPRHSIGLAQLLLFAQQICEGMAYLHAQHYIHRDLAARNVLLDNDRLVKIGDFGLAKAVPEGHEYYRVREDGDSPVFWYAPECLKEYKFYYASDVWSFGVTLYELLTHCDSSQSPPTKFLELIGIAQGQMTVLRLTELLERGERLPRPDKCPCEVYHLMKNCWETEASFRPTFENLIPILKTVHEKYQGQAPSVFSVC

O=P(O)(O)OCC1OC(n2cnc3c(NCc4ccccc4)ncnc32)C(O)C1O (stereo not shown) [IST5]
did not alter: phosphorylation of Jak1 (JAK1; CWR22Pc cells) | phosphorylation of Jak1 (JAK1; DU145 cells) | phosphorylation of Tyk2 (TYK2; CWR22Pc cells) | phosphorylation of Tyk2 (TYK2; DU145 cells)
